Test results as given in PubChem BioAssay (NCI).
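Protocol summary: plate cells (96-well), add compound at 5 concentrations, incubate 48 h, interpolate endpoints linearly. GI50 is the concentration that inhibits growth by half. TGI: total growth inhibition.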

Assays:
Experiment in all cases: DTP human tumour cell line panel, 48 h
786-0 renal = tested on: 786-0 renal
A498 renal = tested on: A498 renal
A549 NSCLC = tested on: A549 NSCLC
ACHN renal = tested on: ACHN renal
BT-549 breast = tested on: BT-549 breast
CAKI-1 renal = tested on: CAKI-1 renal
COLO 205 colon = tested on: COLO 205 colon
DU-145 prostate = tested on: DU-145 prostate
EKVX NSCLC = tested on: EKVX NSCLC
HCC-2998 colon = tested on: HCC-2998 colon
HCT-116 colon = tested on: HCT-116 colon
HCT-15 colon = tested on: HCT-15 colon
HL-60(TB) leukemia = tested on: HL-60(TB) leukemia
HOP-62 NSCLC = tested on: HOP-62 NSCLC
HOP-92 NSCLC = tested on: HOP-92 NSCLC
HS 578T breast = tested on: HS 578T breast
HT29 colon = tested on: HT29 colon
IGROV1 ovarian = tested on: IGROV1 ovarian
K-562 leukemia = tested on: K-562 leukemia
KM12 colon = tested on: KM12 colon
M14 melanoma = tested on: M14 melanoma
MALME-3M melanoma = tested on: MALME-3M melanoma
MCF7 breast = tested on: MCF7 breast
MDA-MB-231 breast = tested on: MDA-MB-231 breast
MDA-MB-435 = tested on: MDA-MB-435
MOLT-4 leukemia = tested on: MOLT-4 leukemia
NCI-H226 lung = tested on: NCI-H226 lung
NCI-H23 lung = tested on: NCI-H23 lung
NCI-H460 lung = tested on: NCI-H460 lung
NCI/ADR-RES ovarian = tested on: NCI/ADR-RES ovarian
OVCAR-3 ovarian = tested on: OVCAR-3 ovarian
OVCAR-4 ovarian = tested on: OVCAR-4 ovarian
OVCAR-5 ovarian = tested on: OVCAR-5 ovarian
OVCAR-8 ovarian = tested on: OVCAR-8 ovarian
PC-3 prostate = tested on: PC-3 prostate
RPMI-8226 leukemia = tested on: RPMI-8226 leukemia
RXF 393 renal = tested on: RXF 393 renal
SF-268 CNS = tested on: SF-268 CNS
SF-295 CNS = tested on: SF-295 CNS
SF-539 CNS = tested on: SF-539 CNS
SK-MEL-2 melanoma = tested on: SK-MEL-2 melanoma
SK-MEL-28 melanoma = tested on: SK-MEL-28 melanoma
SK-MEL-5 melanoma = tested on: SK-MEL-5 melanoma
SK-OV-3 ovarian = tested on: SK-OV-3 ovarian
SN12C renal = tested on: SN12C renal
SNB-19 CNS = tested on: SNB-19 CNS
SNB-75 CNS = tested on: SNB-75 CNS
SR leukemia = tested on: SR leukemia
SW-620 colon = tested on: SW-620 colon
T-47D breast = tested on: T-47D breast
TK-10 renal = tested on: TK-10 renal
U251 CNS = tested on: U251 CNS
UACC-257 melanoma = tested on: UACC-257 melanoma
UACC-62 melanoma = tested on: UACC-62 melanoma
UO-31 renal = tested on: UO-31 renal

**Q.** How did the GI50 (786-0 renal) turn out when `O=C(Nc1cccc(Cl)c1)Nc1nc2ccc([N+](=O)[O-])cc2o1` was run?
**A.** 2.49 µM

**Q.** And the TGI (786-0 renal)?
**A.** 7.77 µM

**Q.** What about the GI50 (A498 renal) of the same compound?
**A.** 1.56 µM

**Q.** And the TGI (A498 renal)?
**A.** 4.5 µM

**Q.** And the GI50 (A549 NSCLC)?
**A.** 3.06 µM

**Q.** What about the TGI (A549 NSCLC) of the same compound?
**A.** > 100 µM

**Q.** What about the GI50 (ACHN renal) of the same compound?
**A.** 3.23 µM

**Q.** What about the TGI (ACHN renal) of the same compound?
**A.** 12.7 µM

**Q.** And the GI50 (BT-549 breast)?
**A.** 2.09 µM

**Q.** What about the TGI (BT-549 breast) of the same compound?
**A.** 7.79 µM

**Q.** What about the GI50 (CAKI-1 renal) of the same compound?
**A.** 2.17 µM

**Q.** What about the TGI (CAKI-1 renal) of the same compound?
**A.** 7.56 µM

**Q.** And the GI50 (COLO 205 colon)?
**A.** 2.4 µM

**Q.** And the TGI (COLO 205 colon)?
**A.** 7.82 µM

**Q.** What about the GI50 (DU-145 prostate) of the same compound?
**A.** 3.53 µM

**Q.** And the TGI (DU-145 prostate)?
**A.** > 100 µM

**Q.** And the GI50 (EKVX NSCLC)?
**A.** 2.82 µM

**Q.** What about the TGI (EKVX NSCLC) of the same compound?
**A.** > 100 µM

**Q.** And the GI50 (HCC-2998 colon)?
**A.** 3.19 µM

**Q.** What about the TGI (HCC-2998 colon) of the same compound?
**A.** 48.3 µM

**Q.** And the GI50 (HCT-116 colon)?
**A.** 2.59 µM

**Q.** And the TGI (HCT-116 colon)?
**A.** 10.3 µM

**Q.** What about the GI50 (HCT-15 colon) of the same compound?
**A.** 2.46 µM

**Q.** What about the TGI (HCT-15 colon) of the same compound?
**A.** > 100 µM

**Q.** What about the GI50 (HL-60(TB) leukemia) of the same compound?
**A.** 2.09 µM

**Q.** What about the TGI (HL-60(TB) leukemia) of the same compound?
**A.** 4.99 µM

**Q.** And the GI50 (HOP-62 NSCLC)?
**A.** 2.49 µM

**Q.** And the TGI (HOP-62 NSCLC)?
**A.** 9.14 µM

**Q.** And the GI50 (HOP-92 NSCLC)?
**A.** 1.65 µM

**Q.** What about the TGI (HOP-92 NSCLC) of the same compound?
**A.** 6.04 µM

**Q.** And the GI50 (HS 578T breast)?
**A.** 3.3 µM

**Q.** What about the TGI (HS 578T breast) of the same compound?
**A.** 54.4 µM

**Q.** What about the GI50 (HT29 colon) of the same compound?
**A.** 3.08 µM

**Q.** What about the TGI (HT29 colon) of the same compound?
**A.** > 100 µM

**Q.** And the GI50 (IGROV1 ovarian)?
**A.** 2.83 µM

**Q.** What about the TGI (IGROV1 ovarian) of the same compound?
**A.** > 100 µM

**Q.** What about the GI50 (K-562 leukemia) of the same compound?
**A.** 3.02 µM

**Q.** What about the TGI (K-562 leukemia) of the same compound?
**A.** > 100 µM

**Q.** What about the GI50 (KM12 colon) of the same compound?
**A.** 3.17 µM

**Q.** And the TGI (KM12 colon)?
**A.** > 100 µM

**Q.** And the GI50 (M14 melanoma)?
**A.** 2.54 µM

**Q.** What about the TGI (M14 melanoma) of the same compound?
**A.** 22.8 µM

**Q.** And the GI50 (MALME-3M melanoma)?
**A.** 2.49 µM

**Q.** What about the TGI (MALME-3M melanoma) of the same compound?
**A.** 36 µM

**Q.** What about the GI50 (MCF7 breast) of the same compound?
**A.** 2.82 µM

**Q.** What about the TGI (MCF7 breast) of the same compound?
**A.** > 100 µM

**Q.** What about the GI50 (MDA-MB-231 breast) of the same compound?
**A.** 2.67 µM

**Q.** What about the TGI (MDA-MB-231 breast) of the same compound?
**A.** 8.54 µM

**Q.** What about the GI50 (MDA-MB-435) of the same compound?
**A.** 2.88 µM

**Q.** What about the TGI (MDA-MB-435) of the same compound?
**A.** > 100 µM

**Q.** What about the GI50 (MOLT-4 leukemia) of the same compound?
**A.** 2.36 µM

**Q.** And the TGI (MOLT-4 leukemia)?
**A.** 7.71 µM

**Q.** What about the GI50 (NCI-H226 lung) of the same compound?
**A.** 2.13 µM

**Q.** What about the TGI (NCI-H226 lung) of the same compound?
**A.** 5.42 µM

**Q.** What about the GI50 (NCI-H23 lung) of the same compound?
**A.** 1.9 µM

**Q.** And the TGI (NCI-H23 lung)?
**A.** 7.09 µM

**Q.** What about the GI50 (NCI-H460 lung) of the same compound?
**A.** 1.74 µM

**Q.** What about the TGI (NCI-H460 lung) of the same compound?
**A.** 5.88 µM

**Q.** And the GI50 (NCI/ADR-RES ovarian)?
**A.** 2.66 µM

**Q.** And the TGI (NCI/ADR-RES ovarian)?
**A.** 8.84 µM

**Q.** What about the GI50 (OVCAR-3 ovarian) of the same compound?
**A.** 2.51 µM

**Q.** What about the TGI (OVCAR-3 ovarian) of the same compound?
**A.** 11.4 µM

**Q.** And the GI50 (OVCAR-4 ovarian)?
**A.** 2.56 µM

**Q.** What about the TGI (OVCAR-4 ovarian) of the same compound?
**A.** > 100 µM

**Q.** And the GI50 (OVCAR-5 ovarian)?
**A.** 4.32 µM

**Q.** What about the TGI (OVCAR-5 ovarian) of the same compound?
**A.** > 100 µM

**Q.** What about the GI50 (OVCAR-8 ovarian) of the same compound?
**A.** 3.12 µM

**Q.** What about the TGI (OVCAR-8 ovarian) of the same compound?
**A.** > 100 µM

**Q.** What about the GI50 (PC-3 prostate) of the same compound?
**A.** 2.18 µM

**Q.** What about the TGI (PC-3 prostate) of the same compound?
**A.** 9.12 µM

**Q.** And the GI50 (RPMI-8226 leukemia)?
**A.** 1.48 µM

**Q.** What about the TGI (RPMI-8226 leukemia) of the same compound?
**A.** 5.02 µM

**Q.** What about the GI50 (RXF 393 renal) of the same compound?
**A.** 1.66 µM

**Q.** What about the TGI (RXF 393 renal) of the same compound?
**A.** 5.16 µM

**Q.** And the GI50 (SF-268 CNS)?
**A.** 3.04 µM

**Q.** And the TGI (SF-268 CNS)?
**A.** > 100 µM

**Q.** What about the GI50 (SF-295 CNS) of the same compound?
**A.** 1.99 µM

**Q.** What about the TGI (SF-295 CNS) of the same compound?
**A.** 6.02 µM

**Q.** And the GI50 (SF-539 CNS)?
**A.** 2.75 µM

**Q.** What about the TGI (SF-539 CNS) of the same compound?
**A.** 7.32 µM

**Q.** And the GI50 (SK-MEL-2 melanoma)?
**A.** 2.09 µM

**Q.** What about the TGI (SK-MEL-2 melanoma) of the same compound?
**A.** 6.11 µM

**Q.** What about the GI50 (SK-MEL-28 melanoma) of the same compound?
**A.** 3.22 µM

**Q.** What about the TGI (SK-MEL-28 melanoma) of the same compound?
**A.** > 100 µM

**Q.** What about the GI50 (SK-MEL-5 melanoma) of the same compound?
**A.** 1.51 µM

**Q.** And the TGI (SK-MEL-5 melanoma)?
**A.** 4.19 µM

**Q.** What about the GI50 (SK-OV-3 ovarian) of the same compound?
**A.** 2.7 µM

**Q.** What about the TGI (SK-OV-3 ovarian) of the same compound?
**A.** 8.33 µM

**Q.** What about the GI50 (SN12C renal) of the same compound?
**A.** 2.28 µM

**Q.** And the TGI (SN12C renal)?
**A.** 7.43 µM

**Q.** And the GI50 (SNB-19 CNS)?
**A.** 2.79 µM

**Q.** What about the TGI (SNB-19 CNS) of the same compound?
**A.** 86.5 µM

**Q.** And the GI50 (SNB-75 CNS)?
**A.** 2.68 µM

**Q.** And the TGI (SNB-75 CNS)?
**A.** 9.8 µM

**Q.** What about the GI50 (SR leukemia) of the same compound?
**A.** 2.69 µM

**Q.** What about the TGI (SR leukemia) of the same compound?
**A.** 7.84 µM

**Q.** And the GI50 (SW-620 colon)?
**A.** 2.71 µM

**Q.** What about the TGI (SW-620 colon) of the same compound?
**A.** > 100 µM

**Q.** And the GI50 (T-47D breast)?
**A.** 1.47 µM

**Q.** And the TGI (T-47D breast)?
**A.** 7.59 µM

**Q.** What about the GI50 (TK-10 renal) of the same compound?
**A.** 3.5 µM

**Q.** And the TGI (TK-10 renal)?
**A.** 8.43 µM

**Q.** What about the GI50 (U251 CNS) of the same compound?
**A.** 2.71 µM

**Q.** And the TGI (U251 CNS)?
**A.** > 100 µM

**Q.** What about the GI50 (UACC-257 melanoma) of the same compound?
**A.** 2.25 µM

**Q.** And the TGI (UACC-257 melanoma)?
**A.** 18.3 µM

**Q.** And the GI50 (UACC-62 melanoma)?
**A.** 1.54 µM

**Q.** What about the TGI (UACC-62 melanoma) of the same compound?
**A.** 4.81 µM

**Q.** And the GI50 (UO-31 renal)?
**A.** 2.67 µM

**Q.** And the TGI (UO-31 renal)?
**A.** 7.82 µM
